Experimental data: patent US12404289B2 (Gilead Sciences, Inc., priority 2020, dated 2025)
Like-named read-outs stand apart in the source and are kept apart here.

Legend:
Assay type in all cases: cell-based
SARS-CoV-2 = SARS-CoV-2 antiviral assay (A549-hACE2, Nano luciferase); conditions: A549-hACE2 cells, SARS-CoV2-Nano, MOI 0.025, 48 h, Table 4, read-out: EC50 SARS CoV2
[1] = system: Respiratory syncytial virus (RSV) strain A2; assay: Hep-2 RSV2 384-well assay (EC50-HEP2-384); conditions: HEp-2 cells, RSV A2, MOI=4, 4 days, Table 3
[2] = system: Respiratory syncytial virus recombinant with luciferase (RSV-Luc5); assay: microbe, parasite or virus in culture; conditions: Table 3
[3] = system: Recombinant respiratory syncytial virus expressing the firefly luciferase protein (RSV-Fluc); assay: microbe, parasite or virus in culture; conditions: Table 4
[4] = system: Respiratory syncytial virus (RSV) strain A2; assay: RSV antiviral assay (HEp-2, 96 well); conditions: Table 3
[5] = Severe acute respiratory syndrome coronavirus 2, 48 h
[6] = human respiratory syncytial virus, HEp-2, 96 h
[7] = human respiratory syncytial virus, HEp-2, 72 h, read-out: EC50 RSVFluc-Hep2 384, HEp-2 cells, RSV-Luc5, MOI=0.5, 3 days, 384 well
[8] = human respiratory syncytial virus, NHBE, 72 h, read-out: EC50 RSVFluc NHBE 96, NHBE cells, RSV-Fluc, MOI of 0.1, three days, 96 well
[9] = read-out: EC50 RSVFluc-Hep2 384, HEp-2 cells, RSV-Luc5, MOI=0.5, 3 days, 384 well
[10] = read-out: EC50 RSVFluc NHBE 96, NHBE cells, RSV-Fluc, MOI of 0.1, three days, 96 well
[11] = read-out: EC50 RSV HEP2 96, HEp-2 cells, RSV A2, MOI=4, 4 days, 96 well

Row | Structure (SMILES) | EC50 (SARS-CoV-2; [5]) | EC50 [1, 6] | EC50 [2, 7] | EC50 [3, 8] | EC50 (SARS-CoV-2) | EC50 [1] | EC50 [2, 9] | EC50 [3, 10] | EC50 ([4]; human respiratory syncytial virus, HEp-2, 96 h, read-out: EC50 RSV HEP2 96, HEp-2 cells, RSV A2, MOI=4, 4 days, 96 well) | EC50 [4, 11]
1 | CC(=O)O[C@H]1[C@@H](OC(C)=O)[C@](C#N)(c2ccc3c(N)ncnn23)O[C@@H]1COP(=O)(N[C@@H](C)C(=O)OC1CC2(CCC2)C1)Oc1ccccc1 (stereo partly drawn) [Example 45, (2R,3R,4R,5R)-2-(4-aminopyrrolo[2,1-f][1,2,4]triazin-7-yl)-2-cyano-5-((((((S)-1-oxo-1-(spiro[3.3]heptan-2-yloxy)propan-2-yl)amino)(phenoxy)phosphoryl)oxy)methyl)tetrahydrofuran-3,4-diyl Diacetate] | 105 nM | 31.1 nM | 19 nM | 5.29 nM | – | – | – | – | – | –
2 | CC(=O)O[C@H]1[C@@H](OC(C)=O)[C@](C#N)(c2ccc3c(N)ncnn23)O[C@@H]1COP(=O)(N[C@@H](C)C(=O)OC1CC2(CCC2)C1)Oc1ccccc1 (single isomer, unassigned) [Example 45b] | – | – | – | – | 56.9 nM | 23.9 nM | 6.87 nM | 10.3 nM | – | –
3 | CC(=O)O[C@H]1[C@@H](OC(C)=O)[C@](C#N)(c2ccc3c(N)ncnn23)O[C@@H]1COP(=O)(N[C@@H](C)C(=O)OC1CC(C)(C)C1)Oc1ccc(C(C)(C)C)cc1 (single isomer, unassigned) [Example 96b] | – | – | – | – | 276 nM | 27.9 nM | 22.5 nM | 25.1 nM | – | –
4 | CC(C)C(=O)O[C@H]1[C@@H](OC(=O)C(C)C)[C@](C#N)(c2ccc3c(N)ncnn23)O[C@@H]1COP(=O)(N[C@@H](C)C(=O)OC1CC2(CCC2)C1)Oc1cccc2ccccc12 (single isomer, unassigned) [Example 86a] | – | – | – | 7.93 nM | 109 nM | – | 88.2 nM | – | 21.6 nM | –
5 | CC(C)C(=O)O[C@H]1[C@@H](OC(=O)C(C)C)[C@](C#N)(c2ccc3c(N)ncnn23)O[C@@H]1COP(=O)(N[C@@H](C)C(=O)OC1CC2(CCC2)C1)Oc1cccc2ccccc12 (single isomer, unassigned) [Example 86b] | – | – | – | – | 23.6 nM | – | 28.3 nM | 9.46 nM | – | 20.9 nM
6 | CC(C)C(=O)O[C@H]1[C@@H](OC(=O)C(C)C)[C@](C#N)(c2ccc3c(N)ncnn23)O[C@@H]1COP(=O)(N[C@@H](C)C(=O)OC1CC2(CCC2)C1)Oc1ccccc1 (stereo partly drawn) [Example 46, (2R,3R,4R,5R)-2-(4-aminopyrrolo[2,1-f][1,2,4]triazin-7-yl)-2-cyano-5-((((((S)-1-oxo-1-(spiro[3.3]heptan-2-yloxy)propan-2-yl)amino)(phenoxy)phosphoryl)oxy)methyl)tetrahydrofuran-3,4-diyl bis(2-methylpropanoate)] | 237 nM | 52.3 nM | 19.3 nM | 7.79 nM | – | – | – | – | – | –
7 | CC(=O)O[C@H]1[C@@H](OC(C)=O)[C@](C#N)(c2ccc3c(N)ncnn23)O[C@@H]1COP(=O)(N[C@@H](C)C(=O)OCC(C)C)Oc1ccc(C(C)(C)C)cc1 (stereo partly drawn) [Example 137, (2R,3R,4R,5R)-2-(4-aminopyrrolo[2,1-f][1,2,4]triazin-7-yl)-5-((((4-(tert-butyl)phenoxy)(((S)-1-isobutoxy-1-oxopropan-2-yl)amino)phosphoryl)oxy)methyl)-2-cyanotetrahydrofuran-3,4-diyl Diacetate] | 67.4 nM | 31.5 nM | 22.1 nM | 4.82 nM | – | – | – | – | – | –
8 | CCC(=O)O[C@H]1[C@@H](OC(=O)CC)[C@](C#N)(c2ccc3c(N)ncnn23)O[C@@H]1COP(=O)(N[C@@H](C)C(=O)OCC(CC)CC)Oc1cccc2ccccc12 (single isomer, unassigned) [Example 79b] | – | – | 45.6 nM | 6.33 nM | 27.8 nM | – | – | – | – | 21.6 nM
9 | CC(=O)O[C@H]1[C@@H](OC(C)=O)[C@](C#N)(c2ccc3c(N)ncnn23)O[C@@H]1COP(=O)(N[C@@H](C)C(=O)OC1CC2(CCC2)C1)Oc1cccc2ccccc12 (single isomer, unassigned) [Example 83a] | 49 nM | – | 32.8 nM | 6.98 nM | – | – | – | – | – | 21.9 nM
